Tests used:
[1] = system: C. neoformans strain H99S; test: Synergy testing; type: cell-based, Cryptococcus neoformans; conditions: for MIC: Cryptococcus neoformans, H99S, read-out: MIC-B, Drug Alone; for MIC-B, Combination: Drug B in combination with AEC5, average of three independent experiments; for FIC index (FICi): combination of the labelled Drug B with AEC5 (Drug A); for interaction with AEC5 by FICi: combination of the labelled drug with AEC5; for change of the drug's MIC when combined with AEC5: drop of MIC, combination versus alone
[2] = system: C. neoformans; conditions: cited from earlier work

Structure (SMILES) | MIC [1] [µg/mL] | MIC-B, Combination [1] [µg/mL] | FIC index (FICi) [1] | interaction with AEC5 by FICi [1] | change of the drug's MIC when combined with AEC5 [1] | time to reduce fungal growth by 50% ([2]; clinical isolates from HIV/AIDS patients) [h] | concentration at which the compound becomes fungicidal ([2]; against C. neoformans, primarily fungistatic below) [x MIC] | time for 50% reduction in fungal growth ([2]; fluconazole against C. neoformans) [h]
C[C@@H]1[C@H](O)[C@@H](C)/C=C/C=C/C=C/C=C/C=C/C=C/C=C/[C@H](O[C@@H]2O[C@H](C)[C@@H](O)[C@H](N)[C@@H]2O)C[C@@H]2O[C@](O)(C[C@@H](O)C[C@@H](O)[C@H](O)CC[C@@H](O)C[C@@H](O)CC(=O)O[C@H]1C)C[C@H](O)[C@H]2C(=O)O [Amphotericin B, amphotericin B] | 0.0156 | 0.0156 | 1.50 | indifferent (0.5 ≤ FICi ≤ 4 indifferent) | does not change | ≥ 10 |  | 
OC(Cn1cncn1)(Cn1cncn1)c1ccc(F)cc1F [Fluconazole, fluconazole] | 8 | 2 | 0.75 | indifferent (0.5 ≤ FICi ≤ 4 indifferent) | four-fold |  | > 8 | 48 to 72
Nc1[nH]c(=O)ncc1F [Flucytosine, flucytosine] | 4 | 0.25 | 0.23 | synergistic (FICi < 0.5 synergistic) |  |  |  | 

Source: paper PMC6660985 (Biopolymers, 2019)
